# Entries after “also recorded” stand apart in the source; their conditions may differ.
# What was measured:
# Clostridium difficile = conditions: cited from earlier work
# urinary 3-IS = test: Urinary 3-IS, total intestinal microbial load, in SCD patients; format: in vivo, human; conditions: after being started on oral rifaximin
# patients with SCD [1] = test: Quality of Life survey using the FANTLC questionnaire; format: in vivo, human
# From the text: Four aspects of QoL issues were examined: Physical well-being, Social well-being, Emotional well-being, and Functional well-being. The scores for response for each of the question were on a scale of 0-4 (0=not at all; 4=very much). As a group, the median score for response to the question “I have pain” decreased from 3.5 to 2 (p=0.08). When the two patients who reported only slight pain before the study (score of 0 or 1) were excluded from the analysis, the median score decreased from 4 to 3 (p=0.04). Changes in the functional well-being of the subjects was examined. […] However, when three subjects were excluded who reported excellent functional well-being even before the study (scores of 3 o 4 for all 7 questions) from the analysis, there was an improvement in the functional well-being of the 9 patients, with the median composite score increased from 14 to 16 (p=0.06).
# serum CD62L = test: Serum CD62L, marker of neutrophil activation, in SCD patients; format: in vivo, human; conditions: SCD subjects following rifaximin treatment
# serum LPS = test: Serum lipopolysaccharides (LPS), bacterial translocation, in SCD patients; format: in vivo, human; conditions: all treated patients vs pre-treatment; to levels comparable to controls without SCD
# intestinal microbiome = test: 16S rRNA analysis of stool specimens for changes in intestinal microbiome; format: in vivo, human; conditions: during vs pre-rifaximin treatment
# From the text: Relative abundances were transformed with the additive log ratio (alr), prior to calculating the difference, to reduce the spurious correlations associated with compositional data. Positive differences signify increased abundance post treatment. Histograms represent the frequency of differences between during and pre-rifaximin treatment alr values, where an increase of abundance during treatment is indicated by a shift of the distribution towards the right.
# patients with SCD [2] = test: Clinical trial NCT03719729: VOC episodes and days needing intravenous opioid analgesia; format: in vivo, human
# From the text: (§1) (ClinicalTrials.gov Identifier: NCT03719729). There were eight males and five females. Ten patients had HbSS, two HbSß^0thal, and one HbSC. Their median age was 29 years (range 24-56). The median number of VOC in the previous 12 months was 4.5 (range 2-13) and number of days needing intravenous opioid analgesia (IOA) was 25.5 days (range 8-198). In 12 of the 13 patients, the VOC was in the form of musculo-skeletal pain typical in distribution for the VOC that normally affected individual patients and in one patient, the VOC was predominantly in the form of recurrent priapism. Five of the patients were already taking hydroxyurea and none L-glutamine or on a transfusion program. Six patients were taking oral opioid at home for chronic pain. The study ran between November 2018 and early August 2019, covering the winter months when most of the patients reported having most frequent VOC. […] CANs were measured by multicolor flow cytometry. Neutrophils were gated by Gr-1^hi CD115^lo SSC^hi and CANs by CD62L^lo CXCR4^hi within the neutrophil population.
# (§2) Twelve of the 13 patients accrued to the study were evaluable for response. […] The mean self-reported medication compliance of the intended doses was 86% (range 50-100). The median number of VOC during the study period decreased from the expected 2.25 (range 1-6.5) per 6 months to 1 per 6 months (range 0-4) (p=0.003) (FIG. 8). […] Their self-reported medication compliance was 100%. The median decrease in days needing IOA over the six-month study-period was 9 (range 1-55), and the median % reduction was 82 (range 20-100) (p=0.008) (FIG. 9). Total number of days needing IOA was reduced from the expected 254 in six months to 98 during the study period. […] Reported adverse events: 1 case of self-limiting probable viral gastroenteritis (culture negative, C. diff negative by PCR) and 2 cases of increased thirst. Slight nausea was common in the first week.
# [3] = tested on: circulating aged neutrophils (CANs); test: Circulating aged neutrophils (CANs) by multicolor flow cytometry in SCD patients on rifaximin; format: in vivo, human
# From the text: as §1
# patients with SCD [4] = test: Clinical trial: laboratory analyses, tolerability and adverse events; format: in vivo, human
# From the text: as §1, §2
# serum iFABP = test: Serum intestinal Fatty Acid Binding Protein (iFABP), intestinal injury, in SCD patients; format: in vivo, human; conditions: 12 SCD patients following rifaximin; to levels comparable to controls without SCD
structure (smiles),measurement,setting,value
CO[C@H]1/C=C/O[C@@]2(C)Oc3c(C)c(O)c4c(O)c(c5c(nc6cc(C)ccn65)c4c3C2=O)NC(=O)/C(C)=C\C=C\[C@H](C)[C@H](O)[C@@H](C)[C@@H](O)[C@@H](C)[C@H](OC(C)=O)[C@@H]1C [rifaximin],activity against Clostridium difficile,Clostridium difficile,has activities against Clostridium difficile
same,change in urinary 3-IS,urinary 3-IS,drops and drop
same,median composite score of functional well-being,"patients with SCD [1]; 9 patients, three with excellent baseline excluded, before 14, p=0.06",16
same,"median score to the question ""I am enjoying the things I usually do for fun""","patients with SCD [1]; after three months of rifaximin, before 1, p=0.048",2.5
same,"median score to the question ""I am able to enjoy life""","patients with SCD [1]; after three months of rifaximin, before 2, p=0.026",2.5
same,"functional well-being, as a group",patients with SCD [1]; following rifaximin,not any significant difference
same,emotional and social well-being,patients with SCD [1]; following rifaximin therapy,No significant change
same,"median score for response to the question ""I have pain""","patients with SCD [1]; scale 0-4, as a group, before rifaximin 3.5, p=0.08",2
same,"median score ""I have pain"", two patients with only slight pain excluded","patients with SCD [1]; scale 0-4, before rifaximin 4, p=0.04",3
same,change in serum CD62L,serum CD62L,drop and significant drop
same,change in serum LPS levels,serum LPS,dropped significantly
same,abundance of Akkermansia in stool,intestinal microbiome,trend towards increased abundance
same,abundance of Bacteroides in stool,intestinal microbiome,increase in the abundance
same,abundance of Escherichia-Shigella in stool,intestinal microbiome,trend towards increased abundance
same,median number of VOC during the study period,"patients with SCD [2]; 12 patients, six months of rifaximin, range 0-4, expected 2.25 (range 1-6.5) per 6 months, p=0.003",1 per 6 months
same,total number of days needing IOA during the study period,patients with SCD [2]; expected 254 in six months,98 days
same,response of the one patient whose VOC was predominantly priapism,patients with SCD [2]; self-reported medication compliance 100%,did not respond
same,median decrease in days needing IOA,"patients with SCD [2]; six-month study period vs expected, range 1-55",9 days
same,median % reduction in days needing IOA,"patients with SCD [2]; six-month study period vs expected, range 20-100, p=0.008",82%
same,median CANs after rifaximin therapy,"[3]; SCD patients, 550 mg twice a day, after 2-4 weeks, range 2.63-20.25, pre-treatment median 12.65% [range 6.07-40.05], two-tailed p=0.0036",4.55%
same,change in CANs after being started on rifaximin,"[3]; all twelve patients, after 2-4 weeks of rifaximin",marked reduction; also recorded: dramatic reduction
same,CANs at the three-month time-point,[3]; two patients whose CANs were analyzed,continued to decrease
same,adverse event: increased thirst,"patients with SCD [4]; both, human, in vivo, 6 months",2 cases
same,adverse event: self-limiting probable viral gastroenteritis,"patients with SCD [4]; culture negative, C. diff negative by PCR, 12 patients",1 case
same,adverse event: slight nausea,"patients with SCD [4]; human, in vivo",common
same,change in bilirubin,"patients with SCD [4]; human, in vivo",did not show any significant change
same,change in haptoglobin,"patients with SCD [4]; human, in vivo",did not show any significant change
same,change in hemoglobin,"patients with SCD [4]; human, in vivo",did not show any significant change
same,change in serum lactate dehydrogenase,"patients with SCD [4]; human, in vivo",did not show any significant change
same,change in white cell counts,"patients with SCD [4]; human, in vivo",did not show any significant change
same,change in serum iFABP,serum iFABP,dropped significantly
